Measurements published in patent US4199504A (priority 1978, dated 1980).

Columns and labels:
[1] = tested on: experimental malignancies; settings: naturally-occurring Vinca alkaloids; prior patents; cited from earlier work
[2] = Titration pKa' in 66 percent DMF; assay type: physicochemical
[3] = tested on: P388 leukemia; assay: P388 leukemia transplanted in mice, tumor inhibition or prolongation of survival; assay type: in vivo
Protocol: (§1) The compounds of this invention and those preparable by the process disclosed herein are active against transplanted tumors in mice in vivo.
(§2) The following table--Table 1--gives the results of experiments in which mice bearing transplanted Gardner lymphosarcoma (GLS), C3 H mammary tumor, B16 melanoma, P 1534(J) leukemia, P388 leukemia or 755 adenocarcinoma were treated with a compound of this invention. In the table, column 1 gives the name of the compound; column 2, the tumor system employed; column 3, the dosage schedule and column 4, the percent inhibition of tumor growth or increased life span.

[4] = tested on: B16 melanoma; assay: B16 melanoma transplanted in mice, tumor inhibition or prolongation of survival; assay type: in vivo
Protocol: as §1, §2

| Structure (SMILES) | active in the treatment of experimental malignancies in animals [1] | pKa' [2] | pKa' (first value) [2] | also measured |
| --- | --- | --- | --- | --- |
| CCC1(O)CC2CN(CCc3c([nH]c4ccccc34)C(C(=O)OC)(c3cc4c(cc3OC)N(C)C3C(O)(C(=O)OC)C(OC(C)=O)C5(CC)C=CCN6CCC43C65)C2)C1 (stereo not shown) [leurosidine] | active | – | – | – |
| CCC1(O)CC2CN(CCc3c([nH]c4ccccc34)C(C(=O)OC)(c3cc4c(cc3OC)N(C)C3C(O)(C(=O)NCCCCCCNC(=O)C5(O)C(O)C6(CC)C=CCN7CCC8(c9cc(C%10(C(=O)OC)CC%11CN(CCc%12c%10[nH]c%10ccccc%12%10)CC(O)(CC)C%11)c(OC)cc9N(C)C58)C76)C(O)C5(CC)C=CCN6CCC43C65)C2)C1 (stereo not shown) [1,6-bis(4-desacetyl VLB C-3 carboxamido)hexane] | – | 7.27 | 5.27 | – |
| CCC12CN3CCc4c([nH]c5ccccc45)C(C(=O)OC)(c4cc5c(cc4OC)N(C)C4C(O)(C(=O)NCCSSCCNC(=O)C6(O)C(O)C7(CC)C=CCN8CCC9(c%10cc(C%11(C(=O)OC)CC%12CN(CCc%13c%11[nH]c%11ccccc%13%11)CC%11(CC)OC%12%11)c(OC)cc%10N(C)C69)C87)C(O)C6(CC)C=CCN7CCC54C76)CC(C3)C1O2 (stereo not drawn) [bis[β-(4-desacetylleurosine C-3 carboxamido)ethyl]disulfide] | – | 7.0 | 5.3 | – |
| CCC1(O)CN2CCc3c([nH]c4ccccc34)C(C(=O)OC)(c3cc4c(cc3OC)N(C)C3C(O)(C(=O)OC)C(OC(C)=O)C5(CC)C=CCN6CCC43C65)CC(O)(C2)C1 (stereo not shown) [leurocolombine] | active | – | – | – |
| CCC1(O)CC2CN(CCc3c([nH]c4ccccc34)C(C(=O)OC)(c3cc4c(cc3OC)N(C)C3C(O)(C(=O)NCCOCCNC(=O)C5(O)C(O)C6(CC)C=CCN7CCC8(c9cc(C%10(C(=O)OC)CC%11CN(CCc%12c%10[nH]c%10ccccc%12%10)CC(O)(CC)C%11)c(OC)cc9N(C)C58)C76)C(O)C5(CC)C=CCN6CCC43C65)C2)C1 (stereo not drawn) [bis[β-(4-desacetyl VLB C-3 carboxamido)ethyl]ether] | – | 7.21 | 5.13 | – |
| CCC1(O)CC2CN(CCc3c([nH]c4ccccc34)C(C(=O)OC)(c3cc4c(cc3OC)N(C)C3C(O)(C(=O)NCCCCCCNC(=O)C5(O)C(O)C6(CC)C=CCN7CCC8(c9cc(C%10(C(=O)OC)CC%11CN(CCc%12c%10[nH]c%10ccccc%12%10)CC(O)(CC)C%11)c(OC)cc9N(C)C58)C76)C(O)C5(CC)C=CCN6CCC43C65)C2)C1 (stereo not shown) [1,6-bis(4-Desacetyl VLB C-3 carboxamido)hexane disulfate] | – | – | – | Percent Inhibition or Prolongation of Survival Time ([3]; P388, 0.9 mg./kg. × 3): 27%; Percent Inhibition or Prolongation of Survival Time ([3]; P388, 1.2 mg./kg. × 3): 74% |
| CCC1(O)CC2CN(CCc3c([nH]c4ccccc34)C(C(=O)OC)(c3cc4c(cc3OC)N(C)C3C(O)(C(=O)NCCCCNC(=O)C5(O)C(O)C6(CC)C=CCN7CCC8(c9cc(C%10(C(=O)OC)CC%11CN(CCc%12c%10[nH]c%10ccccc%12%10)CC(O)(CC)C%11)c(OC)cc9N(C)C58)C76)C(O)C5(CC)C=CCN6CCC43C65)C2)C1 (stereo not shown) [1,4-bis(4-desacetyl VLB C-3 carboxamido)butane] | – | 7.5 | 6.6 | – |
| CCC1(O)CN2CCc3c([nH]c4ccccc34)C(C(=O)OC)(c3cc4c(cc3OC)N(C)C3C(O)(C(=O)OC)CC5(CC)C=CCN6CCC43C65)CC(C2)C1O (stereo not shown) [4-desacetoxy-3'-hydroxyvinblastine] | active | – | – | – |
| CC[C@]1(O)C[C@H]2CN(CCc3c([nH]c4ccccc34)[C@@](C(=O)OC)(c3cc4c(cc3OC)N(C=O)[C@H]3[C@@](O)(C(=O)OC)[C@H](OC(C)=O)[C@]5(CC)C=CCN6CC[C@]43[C@@H]65)C2)C1 [leurocristine] | active | – | – | – |
| CCC1(O)CN2CCc3c([nH]c4ccccc34)C(C(=O)OC)(c3cc4c(cc3OC)N(C)C3C(O)(C(=O)OC)C(OC(C)=O)C5(CC)C=CCN6CCC43C65)CC(C2)C1O (stereo not shown) [vincadioline] | active | – | – | – |
| CCC1(O)CC2CN(CCc3c([nH]c4ccccc34)C(C(=O)OC)(c3cc4c(cc3OC)N(C)C3C(O)(C(=O)NCCCNCCCNC(=O)C5(O)C(O)C6(CC)C=CCN7CCC8(c9cc(C%10(C(=O)OC)CC%11CN(CCc%12c%10[nH]c%10ccccc%12%10)CC(O)(CC)C%11)c(OC)cc9N(C)C58)C76)C(O)C5(CC)C=CCN6CCC43C65)C2)C1 (stereo not shown) [bis[γ-(4-desacetyl VLB C-3 carboxamido)propyl]amine] | – | 7.17 | 4.98 | pKa' (third printed value) [2]: 10.18 |
| CCC1(O)CC2CN(CCc3c([nH]c4ccccc34)C(C(=O)OC)(c3cc4c(cc3OC)N(C)C3C(O)(C(=O)NCCCSSCCCNC(=O)C5(O)C(O)C6(CC)C=CCN7CCC8(c9cc(C%10(C(=O)OC)CC%11CN(CCc%12c%10[nH]c%10ccccc%12%10)CC(O)(CC)C%11)c(OC)cc9N(C)C58)C76)C(O)C5(CC)C=CCN6CCC43C65)C2)C1 (stereo not shown) [bis[γ-(4-desacetyl VLB C-3 carboxamido)propyl]disulfide] | – | 7.21 | 5.20 | – |
| CCC1(O)CC2CN(CCc3c([nH]c4ccccc34)C(C(=O)OC)(c3cc4c(cc3OC)N(C)C3C(O)(C(=O)NCCSCCNC(=O)C5(O)C(O)C6(CC)C=CCN7CCC8(c9cc(C%10(C(=O)OC)CC%11CN(CCc%12c%10[nH]c%10ccccc%12%10)CC(O)(CC)C%11)c(OC)cc9N(C)C58)C76)C(O)C5(CC)C=CCN6CCC43C65)C2)C1 (stereo not drawn) [bis[β-(4-Desacetyl VLB C-3 carboxamido)ethyl]sulfide disulfate] | – | – | – | Percent Inhibition or Prolongation of Survival Time ([3]; P388, 0.6 mg./kg. × 3): 34%; Percent Inhibition or Prolongation of Survival Time ([3]; P388, 0.9 mg./kg. × 3): 49%; Percent Inhibition or Prolongation of Survival Time ([3]; P388, 1.2 mg./kg. × 3): 33% |
| CCC1(O)CC2CN(CCc3c([nH]c4ccccc34)C(C(=O)OC)(c3cc4c(cc3OC)N(C)C3C(O)(C(=O)NCCCSSCCCNC(=O)C5(O)C(O)C6(CC)C=CCN7CCC8(c9cc(C%10(C(=O)OC)CC%11CN(CCc%12c%10[nH]c%10ccccc%12%10)CC(O)(CC)C%11)c(OC)cc9N(C)C58)C76)C(O)C5(CC)C=CCN6CCC43C65)C2)C1 (stereo not shown) [bis [γ-(4-desacetyl VLB C-3 carboxamido)propyl]disulfide disulfate] | – | – | – | Percent Inhibition or Prolongation of Survival Time ([4]; B16, 0.6 mg./kg. × 3): 99%; number of indefinite survivors ([4]; B16, 0.6 mg./kg. × 3): 8; Percent Inhibition or Prolongation of Survival Time ([4]; B16, 0.9 mg./kg. × 3): 61%; number of indefinite survivors ([4]; B16, 0.9 mg./kg. × 3): 5; Percent Inhibition or Prolongation of Survival Time ([4]; B16, 1.2 mg./kg. × 3): 68%; number of indefinite survivors ([4]; B16, 1.2 mg./kg. × 3): 8 |
| CC[C@]1(O)C[C@@H]2CN(CCc3c([nH]c4ccccc34)[C@@](C(=O)OC)(c3cc4c(cc3OC)N(C)[C@H]3[C@@](O)(C(=O)OC)[C@H](OC(C)=O)[C@]5(CC)C=CCN6CC[C@]43[C@@H]65)C2)C1 [vincaleukoblastine] | active | – | – | – |
| CCC1(O)CC2CN(CCc3c([nH]c4ccccc34)C(C(=O)OC)(c3cc4c(cc3OC)N(C)C3C(O)(C(=O)OC)CC5(CC)C=CCN6CCC43C65)C2)C1 (stereo not shown) [4-desacetoxyvinblastine] | active | – | – | – |
| CCC1(O)CC2CN(CCc3c([nH]c4ccccc34)C(C(=O)OC)(c3cc4c(cc3OC)N(C)C3C(O)(C(=O)NCCN(CCNC(=O)C5(O)C(O)C6(CC)C=CCN7CCC8(c9cc(C%10(C(=O)OC)CC%11CN(CCc%12c%10[nH]c%10ccccc%12%10)CC(O)(CC)C%11)c(OC)cc9N(C)C58)C76)CCNC(=O)C5(O)C(O)C6(CC)C=CCN7CCC8(c9cc(C%10(C(=O)OC)CC%11CN(CCc%12c%10[nH]c%10ccccc%12%10)CC(O)(CC)C%11)c(OC)cc9N(C)C58)C76)C(O)C5(CC)C=CCN6CCC43C65)C2)C1 (stereo not drawn) [tris [β-(4-desacetyl VLB C-3 carboxamido)ethyl]amine] | – | 7.25 | 5.2 | – |
| CC[C@]12CN3CCc4c([nH]c5ccccc45)[C@@](C(=O)OC)(c4cc5c(cc4OC)N(C=O)[C@H]4[C@@](O)(C(=O)OC)[C@H](OC(C)=O)[C@]6(CC)C=CCN7CC[C@]54[C@@H]76)C[C@@H](C3)[C@H]1O2 [leuroformine] | active | – | – | – |
| CCC12CN3CCc4c([nH]c5ccccc45)C(C(=O)OC)(c4cc5c(cc4OC)N(C)C4C(O)(C(=O)NCCSSCCNC(=O)C6(O)C(O)C7(CC)C=CCN8CCC9(c%10cc(C%11(C(=O)OC)CC%12CN(CCc%13c%11[nH]c%11ccccc%13%11)CC%11(CC)OC%12%11)c(OC)cc%10N(C)C69)C87)C(O)C6(CC)C=CCN7CCC54C76)CC(C3)C1O2 (stereo not drawn) [bis[β-(4-Desacetylleurosine C-3 carboxamido)ethyl]disulfide disulfate] | – | – | – | Percent Inhibition or Prolongation of Survival Time ([3]; P388, 15 mg./kg. × 3): 46%; Percent Inhibition or Prolongation of Survival Time ([3]; P388, 30 mg./kg. × 3): 55% |
| CC[C@]12CN3CCc4c([nH]c5ccccc45)[C@@](C(=O)OC)(c4cc5c(cc4OC)N(C)[C@H]4[C@@](O)(C(=O)OC)[C@H](OC(C)=O)[C@]6(CC)C=CCN7CC[C@]54[C@@H]76)C[C@H](C3)[C@H]1O2 [leurosine] | active | – | – | – |
| CCC1CC2CN(CCc3c([nH]c4ccccc34)C(C(=O)OC)(c3cc4c(cc3OC)N(C)C3C(O)(C(=O)OC)C(OC(C)=O)C5(CC)C=CCN6CCC43C65)C2)C1 (stereo not shown) [deoxy VLB "A"] | active | – | – | – |
| CCC1(O)CC2CN(CCc3c([nH]c4ccccc34)C(C(=O)OC)(c3cc4c(cc3OC)N(C)C3C(O)(C(=O)NCC[Se][Se]CCNC(=O)C5(O)C(O)C6(CC)C=CCN7CCC8(c9cc(C%10(C(=O)OC)CC%11CN(CCc%12c%10[nH]c%10ccccc%12%10)CC(O)(CC)C%11)c(OC)cc9N(C)C58)C76)C(O)C5(CC)C=CCN6CCC43C65)C2)C1 (stereo not drawn) [bis[β-(4-desacetyl VLB C-3 carboxamido)ethyl]diselenide] | – | 7.22 | 5.10 | – |
